PubChem BioAssay (NCI)
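Test compounds were applied to cells in 96-well plates for 48 hours at 5 doses. GI50 = concentration required for 50% inhibition of growth. TGI: concentration producing complete growth inhibition.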

Key:
Assay in all cases: DTP human tumour cell line panel, 48 h
[1] = system: A498 renal
[2] = system: CCRF-CEM leukemia
[3] = system: HCC-2998 colon
[4] = system: HCT-116 colon
[5] = system: HOP-62 NSCLC
[6] = system: OVCAR-4 ovarian
[7] = system: OVCAR-5 ovarian
[8] = system: PC-3 prostate
[9] = system: SF-295 CNS
[10] = system: SK-MEL-5 melanoma
[11] = system: SW-620 colon
[12] = system: MOLT-4 leukemia
[13] = system: RPMI-8226 leukemia

Row | SMILES | TGI [1] | TGI [2] | TGI [3] | TGI [4] | TGI [5] | TGI [6] | TGI [7] | TGI [8] | TGI [9] | TGI [10] | TGI [11] | TGI [12] | TGI [13] | GI50 [6] | GI50 [10] | GI50 [2] | GI50 [4] | GI50 [7]
1 | CCCSc1ccc2[nH]c(N3C(=O)/C(=C/c4ccc(SC)cc4)N=C3c3ccccc3)cc2c1 | > 50 µM | > 45.8 µM | > 50 µM | > 50 µM | > 50 µM | > 50 µM | > 50 µM | > 50 µM | > 50 µM | > 36.3 µM | > 50 µM |  |  |  |  |  |  | 
2 | Fc1ccc2c3c([nH]c2c1)CCN(Cc1ccccc1)C3 | 31.7 µM | > 100 µM | 26 µM | 32.9 µM | 28.5 µM | 56.1 µM | 47.9 µM |  | 27.9 µM | 38.8 µM | 40 µM | 42.5 µM | 77.2 µM |  |  |  |  | 
3 | CCC(C)[C@@H](Nc1c(O)c2c(c(O)c1Cl)C(=O)C=CC2=O)C(=O)OC (some centres not stated) |  | 4.98 µM | > 10 µM | 6.94 µM | > 10 µM | 8.12 µM | > 10 µM | > 10 µM | > 10 µM | 4.51 µM | > 10 µM | 5.94 µM | 7.39 µM |  |  |  |  | 
4 | COc1cc2c(c(OC)c1OC)-c1ccc(SC)c(=O)cc1[C@@H](O)CC2 |  | > 100 µM | > 100 µM | > 100 µM | > 100 µM | > 100 µM |  |  |  |  | > 100 µM | > 100 µM | > 100 µM | > 100 µM | 0.000311 µM |  |  | 
5 | CCOP(=O)(OCC)C(NC(=O)C(C(F)(F)F)C(F)(F)F)c1ccccc1 (configuration not stated) |  | > 100 µM | > 100 µM | > 100 µM | > 100 µM | > 100 µM | > 100 µM | > 100 µM | > 100 µM | > 100 µM | > 100 µM | > 100 µM | 67 µM |  |  |  |  | 
6 | CC(C)C1NC(=O)CC(c2ccccc2)N(N=O)C1c1ccccc1 (configuration not stated) | > 100 µM | > 100 µM | > 100 µM | > 100 µM | > 100 µM | > 100 µM | > 100 µM |  | > 100 µM | > 100 µM | > 100 µM | > 100 µM | > 100 µM |  |  |  |  | 
7 | O=C1NN(Cc2ccccc2)C(=O)N2CCC[C@@H]12 | > 100 µM | > 100 µM | > 100 µM | > 100 µM | > 100 µM | > 100 µM | > 100 µM | > 100 µM | > 100 µM | > 100 µM | > 100 µM | > 100 µM |  |  |  |  |  | 
8 | COc1cc(C2(c3ncc[nH]3)SSSCC2O)ccc1O (configuration not stated) | > 100 µM | > 53.6 µM | 77 µM | > 100 µM | > 100 µM | > 63.7 µM | > 100 µM |  | > 100 µM | > 100 µM | > 100 µM | > 54.7 µM | > 100 µM |  |  |  |  | 
9 | S=c1ncc2c([nH]1)C1c3ccccc3C2c2ccccc21 |  | > 100 µM |  | > 100 µM | > 100 µM | > 100 µM | > 100 µM |  | > 100 µM | > 100 µM | > 100 µM | > 100 µM | > 100 µM |  |  |  |  | 
10 | O=Cc1cc(C(=O)OCc2ccccc2)n(S(=O)(=O)c2ccccc2)c1 |  | > 100 µM | 33.7 µM | 25.7 µM | 33.7 µM | > 100 µM | 37.6 µM | 53.6 µM | 29 µM | 20.2 µM |  | > 100 µM |  |  |  |  |  | 
11 | CC(=O)NC(NCCN)(c1ccccc1)c1ccccc1 | > 100 µM | > 100 µM | > 100 µM | > 100 µM | > 100 µM | > 100 µM | > 100 µM |  | > 100 µM | > 100 µM | > 100 µM | > 100 µM | > 100 µM |  |  |  |  | 
12 | COc1cc(OC)cc(-c2cc(=O)c3cc4c(cc3[nH]2)OCO4)c1 |  | 4.56 µM | 0.787 µM | 5.5 µM | 17.9 µM | > 96.1 µM | > 63.1 µM |  | 1.74 µM | 8.23 µM | > 100 µM | > 51 µM | > 58.8 µM |  |  |  |  | 
13 | COc1c(C(=O)NCCN(CCNC(=O)c2cccc(-c3cccc(C(=O)N(C)C)c3OC)c2OC)CCNC(=O)c2cccc(-c3cccc(C(=O)N(C)C)c3OC)c2OC)cccc1-c1cccc(C(=O)N(C)C)c1OC |  | 72.7 µM | 33.1 µM | 41.4 µM | > 100 µM | 84 µM | > 100 µM | > 100 µM | > 100 µM | 68.7 µM | > 100 µM | 72.4 µM | 63.7 µM |  |  |  |  | 
14 | COC(=O)/C=C1/OC(c2ccccc2)=C(C)C1=O | 32.8 µM | > 100 µM | 30.2 µM | 15.4 µM | 31.4 µM |  | 30.6 µM |  | 26.1 µM | 34.2 µM | 5.58 µM | > 100 µM | 5.65 µM |  |  |  |  | 
15 | CC(=O)OCC1OC(n2c3c(c(-c4ccc(Cl)cc4)c(C#N)c2=S)CCCC3)C(OC(C)=O)C(OC(C)=O)C1OC(C)=O (configuration not stated) | 79.3 µM | > 100 µM | > 100 µM | > 100 µM | > 100 µM | > 100 µM | > 100 µM | 69.1 µM | > 100 µM | 58.6 µM |  | > 100 µM |  |  |  |  |  | 
16 | C/C=C1\CN2CCc3c([nH]c4ccccc34)C2CC1CCO (configuration not stated) | > 100 µM | > 100 µM | > 100 µM | > 100 µM | > 100 µM | > 100 µM | > 100 µM |  | > 100 µM | > 100 µM | > 100 µM | > 100 µM |  |  |  |  |  | 
17 | C/C(=N\NC(=O)c1ccccc1O)c1cccc(/C(C)=N/NC(=O)c2ccccc2O)n1.O=S(=O)([O-])[O-].[Fe+2] |  | 5.74 µM | > 100 µM | > 100 µM | > 100 µM | > 100 µM | > 100 µM |  | > 100 µM |  | > 100 µM | > 100 µM |  | > 100 µM |  | 1.42 µM | 69.2 µM | > 100 µM
18 | O=C(CSCC(=O)N/N=C\c1cccc([N+](=O)[O-])c1)N/N=C\c1cccc([N+](=O)[O-])c1 | > 100 µM | > 100 µM | > 100 µM | > 100 µM | 16.3 µM | > 100 µM |  |  | 30.5 µM | > 100 µM | > 100 µM | > 100 µM | > 100 µM |  |  |  |  | 
19 | Nc1ncnc2c1ncn2C1CCC(CP(=O)(O)O)C1 (configuration not stated) |  |  | > 100 µM | > 100 µM | > 100 µM | > 100 µM | > 100 µM | > 100 µM | > 100 µM | > 100 µM | > 100 µM |  | > 100 µM |  |  |  |  | 
20 | O=C(c1ccc(Cl)cc1)c1ccc(OCCCOc2ccc(C(=O)c3ccc(Cl)cc3)cc2Cl)c(Cl)c1 |  | > 100 µM | > 100 µM | > 100 µM | > 100 µM | > 100 µM | > 100 µM |  | > 100 µM | > 100 µM | > 100 µM | > 100 µM | > 100 µM |  |  |  |  | 
21 | Cn1c2ccccc2c(=O)c2c(O)cc3c(c21)C=CC(C)(C)O3 | > 25 µM | > 25 µM | > 25 µM | > 25 µM | > 25 µM | > 25 µM | > 25 µM |  | > 25 µM | > 25 µM | > 25 µM |  | > 25 µM |  |  |  |  | 
22 | COc1ccc(-c2c3c(n(C4OC(CO)C(O)C(O)C4O)c(=S)c2C#N)CCCC3)cc1 (configuration not stated) | > 100 µM | > 100 µM | > 100 µM | > 100 µM | > 100 µM | > 100 µM | > 100 µM | > 100 µM | > 100 µM | > 100 µM | > 100 µM | > 100 µM |  |  |  |  |  | 
23 | CC(=O)NCC1OC2COC(c3ccccc3)OC2C(NC(=O)c2ccccc2)C1OC(=O)c1ccccc1 (configuration not stated) | > 100 µM | > 100 µM | > 100 µM | > 100 µM | > 100 µM | > 100 µM | > 100 µM | > 100 µM | > 100 µM | > 100 µM | > 100 µM | > 100 µM |  |  |  |  |  | 
24 | C=CC1CN(C(=O)OCC)N(C(=O)OCC)C1CCc1ccccc1 (configuration not stated) |  | > 100 µM | > 100 µM | > 100 µM | > 100 µM | > 100 µM | > 100 µM | > 100 µM | > 100 µM | > 100 µM |  | > 100 µM | > 100 µM |  |  |  |  | 
25 | CSCSCC(CO)NC(=O)/C(C)=C\c1c(C)[nH]c(=O)[nH]c1=O (configuration not stated) | > 250 µM | > 250 µM | > 250 µM | > 250 µM | > 250 µM | > 250 µM | > 250 µM |  | > 250 µM | > 250 µM | > 250 µM | > 250 µM | > 250 µM |  |  |  |  | 
26 | CCOP(=O)(OCC)C(C(=O)OC)C(=O)C(=O)Nc1cccc(O)c1 (configuration not stated) | > 100 µM | > 100 µM | > 100 µM | > 100 µM | > 100 µM | > 100 µM | > 100 µM | > 100 µM | > 100 µM | > 100 µM | > 100 µM | > 100 µM |  |  |  |  |  | 
27 | CCOC(=O)/C(=N/Nc1ccccc1)N1C(=S)C=C(C)NN(C)C1=S |  | > 100 µM | > 100 µM | > 100 µM |  | > 100 µM | > 100 µM |  | 84.9 µM | > 100 µM | > 100 µM | > 100 µM | > 100 µM |  |  |  |  | 
28 | Cn1cc2ccccc2c1-c1nc(F)nc(Oc2ccc3c(c2)CC[C@@H]2C3CC[C@@]3(C)C2C[C@H](O)[C@@H]3O)n1 (some centres not stated) | 47 µM | 6.43 µM | 29.9 µM | 28.1 µM | 18.7 µM |  | 39.2 µM |  | 33.9 µM | 36.8 µM | 15.8 µM | 26.1 µM | 41.9 µM |  |  |  |  | 
